Values after ≈ are worked out from the molar mass of the structure shown.
Legend:
hTERT-BJ1 cells = experiment: Cell viability of normal fibroblasts; type: cell-based; conditions: 5 μM, normal human fibroblasts, FIG. 6
Description: (§1) The present approach includes methods of confirming cell viability. Persons of skill in the art may select one or more methods for confirming cell viability suitable for the particular embodiment. The inventors initially used the Sulphorhodamine (SRB) assay, which is based on the measurement of cellular protein content. After treatment for 72 hours in 96-well plates, cells were fixed with 10% trichloroacetic acid (TCA) for 1 hour in the cold room, and were dried overnight at room temperature. Then, cells were incubated with SRB for 15 min, washed twice with 1% acetic acid, and air dried for at least 1 hour. Finally, the protein-bound dye was dissolved in a 10 mM Tris, pH 8.8 solution and read using the plate reader at 540-nm. Using the SRB assay, the inventors selected only the compounds depleting ATP levels without prominent cytotoxicity for further analysis. Prominent cytotoxicity was defined as fewer than 30% of cells still on the plate. Of course, embodiments employing other cell viability confirmation methodology may select compounds for further analysis based on other considerations as may be known in the art.
(§2) Based on this analysis, the inventors assessed the functional effects of the three candidates on overall viability in MCF7 cell monolayers and normal human fibroblasts (hTERT-BJ1 cells) (FIG. 6). […]

MCF7 cells [1] = experiment: Seahorse XF96 metabolic flux analysis (OCR/ECAR); type: cell-based, human
Description: The present approach further involves methods of functional validation at step S105, during which a compound's function as a mitochondrial inhibitor may be confirmed. A number of methods may be used for functional validation, including, for example, metabolic flux analysis, mammosphere assays, viability assays, and antibiotic (anti-bacterial and/or anti-fungal) activity. For example, the inventors determined extracellular acidification rates (ECAR) and real-time oxygen consumption rates (OCR) for MCF7 cells using the Seahorse Extracellular Flux (XF96) analyzer (Seahorse Bioscience, MA, USA). MCF7 cells were maintained in DMEM supplemented with 10% FBS (fetal bovine serum), 2 mM GlutaMAX, and 1% Pen-Strep. 5,000 cells per well were seeded into XF96-well cell culture plates, and incubated overnight at 37° C. in a 5% CO2 humidified atmosphere. After 24 hours, cells were treated with selected compounds showing ATP-depletion without prominent cytotoxicity at various concentrations (or vehicle alone). After 72 hours of treatment, cells were washed in pre-warmed XF assay media (for OCR measurement, XF assay media was supplemented with 10 mM glucose, 1 mM Pyruvate, 2 mM L-glutamine and adjusted at pH 7.4). Cells were maintained in 175 μL/well of XF assay media at 37° C. in a non-CO2 incubator for 1 hour. During incubation, 25 μL of 80 mM glucose, 9 μM oligomycin, 1M 2-deoxyglucose (for ECAR measurement) and 25 μL of 10 μM oligomycin, 9 μM FCCP, 10 μM rotenone, 10 μM antimycin A (for OCR measurement) in XF assay media was loaded into the injection ports of the XFe-96 sensor cartridge. During the experiment, the instrument injected these inhibitors into the wells at a given time point, while ECAR/OCR was measured continuously. ECAR and OCR measurements were normalized by protein content (using the Sulphorhodamine B assay). Data sets were analyzed by XFe-96 software, using one-way ANOVA and Student's t-test calculations. All experiments were performed in triplicate, and results validated the mitochondrial inhibition effects of mitoriboscin compounds described herein. It should be appreciated that numerous methods are known for functional validation, and that persons of skill in the art may select one or more depending on the validation needs (e.g., other assays that measure or approximate mitochondrial function). The present approach involves methods of function validation of mitoriboscin compounds. For example, the inventors assessed functional validation of three candidates using the Seahorse Analyzer, which quantitatively measures oxygen consumption rate (OCR) and extracellular acidification rate (ECAR). OCR is a surrogate marker for OXPHOS and ECAR is a surrogate marker for glycolysis and L-lactate production.

MRSA ATCC 43300 = experiment: MIC by broth dilution method; type: cell-based, Methicillin-resistant Staphylococcus aureus
Description: (§3) The minimal inhibitory concentration (MIC) of the antibacterial compounds may be determined using the broth dilution method, according to CLSI guidelines. Test compound solutions (or antibiotic solutions used as positive controls) were diluted, serially, with MHB medium. Then, the suspensions of the microorganisms, prepared from overnight cultures of bacteria in the MHB medium, at a concentration of 10^6 CFU/ml, were added to each dilution in a 1:1 ratio. McFarland standards were used as a reference to adjust the turbidity of microorganism suspensions. Growth (or lack thereof) of the microorganisms was determined after incubation for 24 hours at 37° C. by turbidimetry (wavelength of 600 nm). MIC 50 and MIC 99 are defined as the minimum inhibitory concentration of the compound required for 50% and 99% inhibition of bacterial growth. […] The susceptibility test by measurement of MIC was performed in triplicate and repeated three times independently. Statistical significance was determined using the Student's t-test and values of less than 0.05 were considered significant.
(§4) In order to determine the minimal inhibitory concentration (MIC) for 24/F9, 24/D4 and 23/G4, the broth dilution method may be performed.

P. auriginosa ATCC 27853 = experiment: MIC by broth dilution method; type: cell-based, P. aeruginosa
Description: as §3, with “nm).” for “nm). MIC 50 and MIC 99 are defined as the minimum inhibitory concentration of the compound required for 50% and 99% inhibition of bacterial growth.”, “independently.” for “independently. Statistical significance was determined using the Student's t-test and values of less than 0.05 were considered significant.”

MCF7 cell monolayers = experiment: Cell viability of MCF7 monolayers (SRB); type: cell-based, human; conditions: FIG. 6
Description: as §1, §2

MCF7 cells [2] = experiment: Mammosphere formation assay; type: cell-based, human; conditions: 5 μM, FIG. 5
Description: The present approach involves methods of testing compounds, and in particular mitoriboscins, for anti-cancer properties. As discussed above, vHTS and computational chemistry may be used to identify candidate mitochondrial inhibitors. Those candidates may be tested for specific anti-cancer properties. For examples, the inventors compared seven candidate compounds in parallel for their ability to inhibit mammosphere formation in MCF7 cells. […] For example, 23/G4 (Group 1) reduced mammosphere formation by 50% at this concentration. Similarly, 24/F9 (Group 2) and 24/D4 (Group 3), both reduced mammosphere formation by ˜90%.

K. pneumoniae ATCC 13883 = experiment: MIC by broth dilution method; type: cell-based
Description: as §3, with “nm).” for “nm). MIC 50 and MIC 99 are defined as the minimum inhibitory concentration of the compound required for 50% and 99% inhibition of bacterial growth.”, “independently.” for “independently. Statistical significance was determined using the Student's t-test and values of less than 0.05 were considered significant.”

[3] = tested on: Strept. pyogenes ATCC 19615; experiment: MIC by broth dilution method; type: cell-based
Description: as §3, with “nm).” for “nm). MIC 50 and MIC 99 are defined as the minimum inhibitory concentration of the compound required for 50% and 99% inhibition of bacterial growth.”, “independently.” for “independently. Statistical significance was determined using the Student's t-test and values of less than 0.05 were considered significant.”

E. coli ATCC 25922 = experiment: MIC by broth dilution method; type: cell-based; conditions: E. coli ATCC 25922, 24 hours at 37° C.
Description: as §3, with “nm).” for “nm). MIC 50 and MIC 99 are defined as the minimum inhibitory concentration of the compound required for 50% and 99% inhibition of bacterial growth.”, “independently.” for “independently. Statistical significance was determined using the Student's t-test and values of less than 0.05 were considered significant.”

[4] = tested on: Staph. aureus ATCC 25923 (MSSA); experiment: MIC by broth dilution method; type: cell-based
Description: as §3, with “nm).” for “nm). MIC 50 and MIC 99 are defined as the minimum inhibitory concentration of the compound required for 50% and 99% inhibition of bacterial growth.”, “independently.” for “independently. Statistical significance was determined using the Student's t-test and values of less than 0.05 were considered significant.”

C. albicans = experiment: MIC by broth dilution method; type: cell-based; conditions: C. albicans ATCC 13883
Description: as §3, §4

[5] = tested on: twelve different cell lines, representing eight different cancer types; conditions: cited from earlier work
[6] = Staph. aureus ATCC 25923 (Table 3)

With `OC1C(NCc2ccccc2)CCCC1Oc1ccccc1Oc1ccc(Cl)cc1` (stereo not shown) [23/G4] the “effect on viability of hTERT-BJ1 cells” value (hTERT-BJ1 cells) was “no effect”, the “reduction of ATP levels” value (MCF7 cells [1]; 500 nM) was greater than 50% and the “reduction of ATP levels” value (MCF7 cells [1]; 2.5 μM, FIG. 7) was roughly 75%. For the same compound, the “reduction in ATP levels” value (MCF7 cells [1]; 5 μM, FIG. 10) was “greater than 75%”, the “increase in glycolysis rates” value (MCF7 cells [1]; ECAR) was “more than 1.5 fold” and the “inhibition of mitochondrial oxygen-consumption” value (MCF7 cells [1]; FIGS. 7, 8 and 9) was “dose-dependently inhibited”. The “rank order potency to reduce maximal respiration and ATP production” value (MCF7 cells [1]; top 10 hits, FIG. 10) was “top 6”, the “MIC 50%” value (MRSA ATCC 43300; MRSA ATCC 43300) was 16 µg/mL (≈ 37.7 µM) and the “MIC 99%” value (MRSA ATCC 43300; MRSA ATCC 43300) was greater than 32 µg/mL. For the same compound, the “sensitivity of MRSA” value (MRSA ATCC 43300; MRSA, summary of Table 4) was “sensitive”, the “MIC 50%” value (P. auriginosa ATCC 27853) was 16 µg/mL (≈ 37.7 µM) and the “MIC 99%” value (P. auriginosa ATCC 27853) was 32 µg/mL (≈ 75.5 µM). The “effect on overall cell viability of MCF7 monolayers” value (MCF7 cell monolayers; 500 nM and 2.5 μM) was “little or no effect”, the “reduction of viability of MCF7 cells” value (MCF7 cell monolayers; 5 μM) was 70% and the “reduction of mammosphere formation” value (MCF7 cells [2]) was 50%. For the same compound, the “MIC 50%” value (K. pneumoniae ATCC 13883) was 16 µg/mL (≈ 37.7 µM), the “MIC 99%” value (K. pneumoniae ATCC 13883) was 32 µg/mL (≈ 75.5 µM) and the “MIC 50%” value [3] was 4 µg/mL (≈ 9.44 µM). The “MIC 99%” value [3] was 8 µg/mL (≈ 18.9 µM), the “MIC 50%” value (E. coli ATCC 25922) was greater than 16 µg/mL and the “MIC 99%” value (E. coli ATCC 25922) was greater than 32 µg/mL. For the same compound, the “MIC 50%” value ([4]; MSSA ATCC 25923 (Table 4)) was 4 µg/mL (≈ 9.44 µM), the “MIC 99%” value ([4]; MSSA ATCC 25923 (Table 4)) was 8 µg/mL (≈ 18.9 µM) and the “MIC 50%” value [4, 6] was 4 µg/mL (≈ 9.44 µM). For the same compound, the “MIC 99%” value [4, 6] was 8 µg/mL (≈ 18.9 µM), the “MIC 50%” value (C. albicans) was 8 µg/mL (≈ 18.9 µM) and the “MIC 99%” value (C. albicans) was 16 µg/mL (≈ 37.7 µM).

For `CC[C@H]1OC(=O)[C@H](C)[C@@H](O[C@H]2C[C@@](C)(OC)[C@@H](O)[C@H](C)O2)[C@H](C)[C@@H](O[C@@H]2O[C@H](C)C[C@H](N(C)C)[C@H]2O)[C@](C)(O)C[C@@H](C)C(=O)[C@H](C)[C@@H](O)[C@]1(C)O` [Erithromycin], the “efficacy in cancer cell lines” value [5] is listed as “show efficacy”.
